Assay results reported in article PMC6704710, “Preclinical evaluation of 3D185, a novel potent inhibitor of FGFR1/2/3 and CSF-1R, in FGFR-dependent and macrophage-dominant cancer models” (Journal of Experimental & Clinical Cancer Research : CR, 2019).

Assays:
Format in all cases: biochemical
Abl(h) = target: T1, Abl(h) (Homo sapiens, UniProt P00519); assay: Eurofins kinase panel; settings: read-out: Inhibition rate (%)
T1 construct: purchased Eurofins (KinaseProfiler)

Aurora-C(h) = target: T2, Aurora-C(h) (Homo sapiens, UniProt Q9UQB9); assay: Eurofins kinase panel; settings: read-out: Inhibition rate (%)
T2 construct: purchased Eurofins (KinaseProfiler)
T2 sequence (Q9UQB9 1-309): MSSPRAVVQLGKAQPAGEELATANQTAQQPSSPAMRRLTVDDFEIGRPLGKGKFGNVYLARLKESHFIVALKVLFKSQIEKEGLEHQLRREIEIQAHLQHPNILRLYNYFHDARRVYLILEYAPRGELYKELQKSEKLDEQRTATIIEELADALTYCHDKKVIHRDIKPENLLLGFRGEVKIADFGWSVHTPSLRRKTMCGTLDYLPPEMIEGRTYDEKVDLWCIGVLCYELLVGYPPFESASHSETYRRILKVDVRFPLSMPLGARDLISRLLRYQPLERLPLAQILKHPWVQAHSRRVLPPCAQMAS

GSK3α(h) = target: T3, GSK3α(h) (Homo sapiens, UniProt P49840); assay: Eurofins kinase panel; settings: read-out: Inhibition rate (%)
T3 construct: purchased Eurofins (KinaseProfiler)
T3 sequence (P49840 whole entry): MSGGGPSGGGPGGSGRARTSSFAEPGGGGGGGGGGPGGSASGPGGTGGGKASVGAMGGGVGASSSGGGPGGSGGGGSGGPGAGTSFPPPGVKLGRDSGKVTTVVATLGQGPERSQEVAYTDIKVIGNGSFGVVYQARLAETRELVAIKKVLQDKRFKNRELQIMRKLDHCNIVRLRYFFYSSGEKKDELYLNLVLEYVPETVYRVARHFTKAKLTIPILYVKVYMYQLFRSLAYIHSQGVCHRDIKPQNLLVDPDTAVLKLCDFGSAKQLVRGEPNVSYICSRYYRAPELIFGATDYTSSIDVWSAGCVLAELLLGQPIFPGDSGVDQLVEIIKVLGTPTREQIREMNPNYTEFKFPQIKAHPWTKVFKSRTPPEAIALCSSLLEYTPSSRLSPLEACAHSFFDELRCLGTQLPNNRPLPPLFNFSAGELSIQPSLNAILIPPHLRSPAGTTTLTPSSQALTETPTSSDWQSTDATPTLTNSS

IRR(h) = target: T4, IRR(h) (Homo sapiens, UniProt P14616); assay: Eurofins kinase panel; settings: read-out: Inhibition rate (%)
T4 construct: purchased Eurofins (KinaseProfiler)
T4 sequence (P14616 27-1297): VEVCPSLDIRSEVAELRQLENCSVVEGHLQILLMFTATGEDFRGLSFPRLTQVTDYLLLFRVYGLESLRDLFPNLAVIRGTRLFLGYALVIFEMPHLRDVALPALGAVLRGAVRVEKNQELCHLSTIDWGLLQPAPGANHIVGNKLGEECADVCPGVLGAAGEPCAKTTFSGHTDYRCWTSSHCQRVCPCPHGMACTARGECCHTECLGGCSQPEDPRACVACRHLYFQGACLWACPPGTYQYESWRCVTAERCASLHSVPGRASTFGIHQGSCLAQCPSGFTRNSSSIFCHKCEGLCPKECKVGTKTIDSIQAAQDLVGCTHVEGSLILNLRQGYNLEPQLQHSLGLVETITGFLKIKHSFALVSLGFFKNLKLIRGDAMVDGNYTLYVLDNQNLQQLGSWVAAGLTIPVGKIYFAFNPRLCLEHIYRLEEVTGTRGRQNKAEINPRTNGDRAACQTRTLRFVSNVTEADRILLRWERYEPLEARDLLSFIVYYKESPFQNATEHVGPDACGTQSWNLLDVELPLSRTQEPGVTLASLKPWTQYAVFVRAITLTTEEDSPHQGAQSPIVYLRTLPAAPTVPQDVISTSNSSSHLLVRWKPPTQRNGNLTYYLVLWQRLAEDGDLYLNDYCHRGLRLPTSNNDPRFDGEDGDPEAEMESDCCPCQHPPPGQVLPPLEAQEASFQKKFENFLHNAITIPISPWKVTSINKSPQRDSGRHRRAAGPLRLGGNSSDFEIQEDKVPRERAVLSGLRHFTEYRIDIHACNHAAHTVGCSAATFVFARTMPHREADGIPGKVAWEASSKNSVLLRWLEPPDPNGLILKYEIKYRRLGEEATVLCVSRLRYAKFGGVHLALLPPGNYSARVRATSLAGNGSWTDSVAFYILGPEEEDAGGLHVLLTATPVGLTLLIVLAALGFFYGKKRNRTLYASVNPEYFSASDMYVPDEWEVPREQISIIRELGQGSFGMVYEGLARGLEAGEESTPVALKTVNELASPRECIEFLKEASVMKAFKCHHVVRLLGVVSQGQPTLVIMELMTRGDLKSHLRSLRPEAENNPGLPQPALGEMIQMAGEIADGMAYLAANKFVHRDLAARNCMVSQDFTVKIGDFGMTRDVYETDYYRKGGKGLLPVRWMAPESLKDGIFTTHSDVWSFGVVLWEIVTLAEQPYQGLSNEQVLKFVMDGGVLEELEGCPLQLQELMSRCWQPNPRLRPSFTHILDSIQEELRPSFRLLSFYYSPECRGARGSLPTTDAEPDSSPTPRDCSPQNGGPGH

Lyn(h) = target: T5, Lyn(h) (Homo sapiens, UniProt P07948); assay: Eurofins kinase panel; settings: read-out: Inhibition rate (%)
T5 construct: purchased Eurofins (KinaseProfiler)
T5 sequence (P07948 whole entry): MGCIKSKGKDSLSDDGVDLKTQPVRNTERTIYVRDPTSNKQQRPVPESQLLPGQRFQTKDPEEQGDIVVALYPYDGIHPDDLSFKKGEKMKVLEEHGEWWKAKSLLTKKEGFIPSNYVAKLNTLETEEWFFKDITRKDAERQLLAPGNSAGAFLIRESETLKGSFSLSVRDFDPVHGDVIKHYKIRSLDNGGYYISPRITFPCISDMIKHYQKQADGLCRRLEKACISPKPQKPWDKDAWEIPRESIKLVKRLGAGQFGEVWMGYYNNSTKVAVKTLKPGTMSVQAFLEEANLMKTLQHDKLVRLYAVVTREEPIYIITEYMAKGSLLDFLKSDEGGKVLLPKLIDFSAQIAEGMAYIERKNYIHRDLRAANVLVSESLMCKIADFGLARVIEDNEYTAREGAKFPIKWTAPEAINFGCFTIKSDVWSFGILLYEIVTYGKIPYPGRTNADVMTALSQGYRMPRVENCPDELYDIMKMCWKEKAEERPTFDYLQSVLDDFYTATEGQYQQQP

Mer(h) = target: T6, Mer(h) (Homo sapiens, UniProt Q12866); assay: Eurofins kinase panel; settings: read-out: Inhibition rate (%)
T6 construct: purchased Eurofins (KinaseProfiler)
T6 sequence (Q12866 21-999): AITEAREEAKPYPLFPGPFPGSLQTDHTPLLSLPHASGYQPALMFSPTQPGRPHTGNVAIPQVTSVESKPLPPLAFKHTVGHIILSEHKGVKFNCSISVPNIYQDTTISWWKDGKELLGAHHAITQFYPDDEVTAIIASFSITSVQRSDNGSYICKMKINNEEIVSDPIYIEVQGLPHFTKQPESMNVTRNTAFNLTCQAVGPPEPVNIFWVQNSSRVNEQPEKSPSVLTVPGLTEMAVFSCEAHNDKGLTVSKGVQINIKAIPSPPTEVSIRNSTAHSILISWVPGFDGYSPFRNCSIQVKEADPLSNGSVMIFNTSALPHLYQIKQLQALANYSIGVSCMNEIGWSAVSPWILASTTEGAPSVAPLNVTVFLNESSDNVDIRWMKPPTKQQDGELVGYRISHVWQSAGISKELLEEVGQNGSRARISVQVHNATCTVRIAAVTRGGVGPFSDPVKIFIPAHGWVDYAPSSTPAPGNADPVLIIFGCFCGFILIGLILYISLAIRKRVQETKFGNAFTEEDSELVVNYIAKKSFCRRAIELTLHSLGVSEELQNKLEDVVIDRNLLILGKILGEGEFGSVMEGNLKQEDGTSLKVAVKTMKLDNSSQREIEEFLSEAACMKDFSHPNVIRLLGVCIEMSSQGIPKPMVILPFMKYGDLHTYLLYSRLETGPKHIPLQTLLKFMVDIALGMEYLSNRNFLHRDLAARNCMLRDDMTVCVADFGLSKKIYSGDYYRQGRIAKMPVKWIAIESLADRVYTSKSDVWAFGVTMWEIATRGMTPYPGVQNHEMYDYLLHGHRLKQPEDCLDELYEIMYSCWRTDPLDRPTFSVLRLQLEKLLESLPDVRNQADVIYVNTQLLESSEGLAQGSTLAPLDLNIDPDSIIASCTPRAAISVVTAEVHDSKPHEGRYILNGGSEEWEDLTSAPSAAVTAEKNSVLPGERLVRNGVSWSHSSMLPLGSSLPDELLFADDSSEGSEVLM

MST3(h) = target: T7, MST3(h) (Homo sapiens, UniProt Q9Y6E0); assay: Eurofins kinase panel; settings: read-out: Inhibition rate (%)
T7 construct: purchased Eurofins (KinaseProfiler)
T7 sequence (Q9Y6E0 whole entry): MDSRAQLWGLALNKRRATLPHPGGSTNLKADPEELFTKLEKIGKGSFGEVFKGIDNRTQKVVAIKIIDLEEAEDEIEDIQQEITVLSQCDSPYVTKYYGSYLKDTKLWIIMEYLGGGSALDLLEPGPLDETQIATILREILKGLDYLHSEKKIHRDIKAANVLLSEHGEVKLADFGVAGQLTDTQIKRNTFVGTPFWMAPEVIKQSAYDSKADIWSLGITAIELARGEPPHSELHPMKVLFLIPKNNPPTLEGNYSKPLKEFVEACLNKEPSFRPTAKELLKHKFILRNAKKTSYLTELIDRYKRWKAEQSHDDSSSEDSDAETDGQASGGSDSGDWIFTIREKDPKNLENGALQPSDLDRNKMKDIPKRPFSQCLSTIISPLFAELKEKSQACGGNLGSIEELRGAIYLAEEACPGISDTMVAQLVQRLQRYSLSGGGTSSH

Pim-1(h) = target: T8, Pim-1(h) (Homo sapiens, UniProt P11309); assay: Eurofins kinase panel; settings: read-out: Inhibition rate (%)
T8 construct: purchased Eurofins (KinaseProfiler)
T8 sequence (P11309 whole entry): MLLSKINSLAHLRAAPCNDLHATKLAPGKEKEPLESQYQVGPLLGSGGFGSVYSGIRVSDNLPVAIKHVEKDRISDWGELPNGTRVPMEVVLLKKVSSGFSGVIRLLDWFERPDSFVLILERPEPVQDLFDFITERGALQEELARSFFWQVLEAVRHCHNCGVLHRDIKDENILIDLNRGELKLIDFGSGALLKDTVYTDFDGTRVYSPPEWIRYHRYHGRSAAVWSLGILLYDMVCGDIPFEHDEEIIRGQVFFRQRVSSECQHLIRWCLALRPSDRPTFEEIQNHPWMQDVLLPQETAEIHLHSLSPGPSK

CSF-1R = CSF-1R (Homo sapiens, UniProt P07333); assay: Z'-LYTE kinase assay; settings: mean ± SD

T1 sequence (P00519 whole entry): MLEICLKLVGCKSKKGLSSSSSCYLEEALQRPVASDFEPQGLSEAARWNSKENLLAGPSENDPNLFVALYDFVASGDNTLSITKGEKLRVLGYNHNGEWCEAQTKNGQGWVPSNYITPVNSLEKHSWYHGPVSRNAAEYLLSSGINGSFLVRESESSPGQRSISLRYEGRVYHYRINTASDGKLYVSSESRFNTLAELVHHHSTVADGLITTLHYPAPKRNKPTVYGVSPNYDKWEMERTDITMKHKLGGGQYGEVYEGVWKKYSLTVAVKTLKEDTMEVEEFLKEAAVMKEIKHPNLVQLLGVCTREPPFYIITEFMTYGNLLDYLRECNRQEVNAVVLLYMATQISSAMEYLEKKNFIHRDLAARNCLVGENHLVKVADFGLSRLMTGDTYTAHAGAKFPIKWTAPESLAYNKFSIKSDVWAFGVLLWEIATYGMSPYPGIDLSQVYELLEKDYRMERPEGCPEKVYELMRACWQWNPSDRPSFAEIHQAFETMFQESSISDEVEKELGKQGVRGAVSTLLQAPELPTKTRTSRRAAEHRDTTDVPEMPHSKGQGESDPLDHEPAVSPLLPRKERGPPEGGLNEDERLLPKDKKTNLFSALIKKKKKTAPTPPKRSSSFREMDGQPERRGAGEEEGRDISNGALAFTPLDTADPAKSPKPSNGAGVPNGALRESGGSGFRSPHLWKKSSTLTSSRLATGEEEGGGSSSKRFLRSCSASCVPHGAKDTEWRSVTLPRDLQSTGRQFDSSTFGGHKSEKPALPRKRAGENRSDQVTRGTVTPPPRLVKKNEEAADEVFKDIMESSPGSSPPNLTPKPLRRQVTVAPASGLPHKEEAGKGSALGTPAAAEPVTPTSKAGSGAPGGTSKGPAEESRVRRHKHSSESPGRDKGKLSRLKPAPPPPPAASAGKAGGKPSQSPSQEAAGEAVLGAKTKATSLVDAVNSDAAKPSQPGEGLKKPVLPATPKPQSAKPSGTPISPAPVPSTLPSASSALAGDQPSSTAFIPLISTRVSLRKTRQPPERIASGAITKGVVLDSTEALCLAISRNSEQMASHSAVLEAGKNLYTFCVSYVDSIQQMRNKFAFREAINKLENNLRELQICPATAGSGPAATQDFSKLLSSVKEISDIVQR

Q: Which inhibition at 0.01 µM (Abl(h); 10 nM) does the source give for `COc1cc(OC)c(Cl)c(-c2ccc3c(NC(=O)c4ccc(N5CCNC(C)(C)C5)cc4)n[nH]c3n2)c1Cl` [3D185] here?
A: 3%

Q: And the inhibition at 0.1 µM (Abl(h); 100 nM)?
A: 43%

Q: What about the inhibition at 1 µM (Abl(h); 1000 nM) of the same molecule?
A: 81%

Q: What about the inhibition at 0.01 µM (Aurora-C(h); 10 nM) of the same molecule?
A: -15%

Q: And the inhibition at 0.1 µM (Aurora-C(h); 100 nM)?
A: 6%

Q: And the inhibition at 1 µM (Aurora-C(h); 1000 nM)?
A: -2%

Q: What about the inhibition at 0.01 µM (GSK3α(h); 10 nM) of the same molecule?
A: 10%

Q: And the inhibition at 0.1 µM (GSK3α(h); 100 nM)?
A: 4%

Q: What about the inhibition at 1 µM (GSK3α(h); 1000 nM) of the same molecule?
A: -5%

Q: And the inhibition at 0.01 µM (IRR(h); 10 nM)?
A: -5%

Q: What about the inhibition at 0.1 µM (IRR(h); 100 nM) of the same molecule?
A: 5%

Q: What about the inhibition at 1 µM (IRR(h); 1000 nM) of the same molecule?
A: 1%

Q: And the inhibition at 0.01 µM (Lyn(h); 10 nM)?
A: 8%

Q: What about the inhibition at 0.1 µM (Lyn(h); 100 nM) of the same molecule?
A: 81%

Q: And the inhibition at 1 µM (Lyn(h); 1000 nM)?
A: 98%

Q: What about the inhibition at 0.01 µM (Mer(h); 10 nM) of the same molecule?
A: -9%

Q: And the inhibition at 0.1 µM (Mer(h); 100 nM)?
A: -7%

Q: And the inhibition at 1 µM (Mer(h); 1000 nM)?
A: 32%

Q: And the inhibition at 0.01 µM (MST3(h); 10 nM)?
A: -2%

Q: And the inhibition at 0.1 µM (MST3(h); 100 nM)?
A: 8%

Q: What about the inhibition at 1 µM (MST3(h); 1000 nM) of the same molecule?
A: 70%

Q: What about the inhibition at 0.01 µM (Pim-1(h); 10 nM) of the same molecule?
A: -5%

Q: And the inhibition at 0.1 µM (Pim-1(h); 100 nM)?
A: 13%

Q: And the inhibition at 1 µM (Pim-1(h); 1000 nM)?
A: 9%

Q: And the IC50 (CSF-1R)?
A: 3.8 nM
